Measurements: US20080317674A1, “Method and Reagent for Measuring Nitroreductase Enzyme Activity” (priority 2004, published 2008)

Tests used:
[1] = target: NTR enzyme (Escherichia coli, UniProt P38489); assay: Shift in absorption maximum after action of NTR upon a substrate; assay type: biochemical
Description: Compound (8) in DMSO (1 mMol) (4 μl ) was diluted into PBS buffer (0.01M) (1.76 ml). The UV/Vis spectrum of the solution was measured. The substrate has an absorbance maximum at 682 nm AU=0.22. To the solution was added NADH (0.01M in PBS) (200 μl) and NTR enzyme (446 ng/ml, 37 μl) the mixture was leave to stand at room temperature for 30 mins. After this time, the absorbance spectrum was re-measured. A new absorbance maximum at 621 nm, AU=0.17 is observed.

[2] = target: T1, nitroreductase (NTR) (Escherichia coli, UniProt P38489); assay: Nitroreductase gene reporter assay (adenoviral NF-κB NTR reporter, HeLa cells); assay type: cell-based; details: control sample cells containing the reporter, no agonist, vs mock transduced cells
T1 construct: expressed in transfected cells
Description: A reporter construct containing the NF-κB response element upstream of the NTR gene was constructed in pDC511 (Admax™). The reporter was packaged with AdS genomic DNA in helper cells, HEK293, and replication incompetent Adenovirus rescued.
HeLa cells were subcultured for twenty-four hours prior to viral transduction and incubated overnight at 37° C. in a humidified atmosphere of 5% CO2 in Dulbecco's Modified Eagles medium containing 10% foetal calf serum +2 mM L-glutamine. After the overnight incubation, the cells were detached from each flask with trypsin, pooled to produce a suspension of cells and the cell concentration determined. The HeLa cell suspension was mixed with virus at a predetermined multiplicity of infection (MOI) in a sufficient minimal volume of complete medium to cover the base of a tissue culture flask; typically 15 ml for 10^6 cells in a T75 cm^2 Costar flask. The cell/virus suspension was returned to the incubator and left overnight at 37° C. in a humidified atmosphere of 5% CO2. […] The cells were detached with trypsin and pooled to produce a suspension of transduced cells; the concentration of the cell suspension was determined and adjusted to 5.0×10^4 cells per ml. […] The fluorescence signal was monitored over time by means of a Tecan “Ultra” fluorimeter. All substrates were measured under identical conditions to avoid instrument artefacts. […]

[3] = target: T2, nitroreductase (Escherichia coli, UniProt P38489); assay: Live cell NTR assays, signal retention after fixation of cells; assay type: cell-based; details: live cell NTR assay, cells fixed
T2 construct: expressed in transfected cells
Text: Further examples of the utility of nitro-substituted squaraine dyes (Compounds (2), (3) and (4)) as nitroreductase substrates are shown in live cell NTR assays, FIG. 5.

Chain of NTR enzyme (P38489 whole entry): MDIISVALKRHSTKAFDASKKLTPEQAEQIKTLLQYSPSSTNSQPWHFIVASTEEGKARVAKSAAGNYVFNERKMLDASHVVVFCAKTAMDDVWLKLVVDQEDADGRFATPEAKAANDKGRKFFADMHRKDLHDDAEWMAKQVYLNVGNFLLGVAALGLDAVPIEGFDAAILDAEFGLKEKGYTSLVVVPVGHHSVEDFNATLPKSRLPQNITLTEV
T1 sequence (P38489 whole entry): as above
T2 sequence (P38489 whole entry): as above

## C[n+]1c(C=C2C(=O)C(C=C3N(CCCCS(=O)(=O)O)c4ccc(S(=O)(=O)O)cc4C3(C)C)=C2[O-])ccc2cc([N+](=O)[O-])ccc21 [Compound (8), 2-((3,3-dimethyl-5-sulfo-1-(4-sulfobutyl)-1,3-dihydro-2H-indol-2-ylidene)methyl)-4-((1-methyl-6-nitroquinolinium-2-yl)methylene)-3-oxocyclobut-1-en-1-olate]
[1]; NADH and NTR enzyme added, room temperature, 30 mins
  new absorbance maximum after action of NTR: 621 nm
[1]; at 621 nm, NADH and NTR enzyme added, room temperature, 30 mins
  absorbance at new maximum after action of NTR: 0.17 AU
[1]; before NTR, PBS buffer 0.01M
  absorbance maximum of substrate: 682 nm
[1]; before NTR, at 682 nm, PBS buffer
  absorbance at maximum of substrate: 0.22 AU

## CN1/C(=C\C2=C([O-])C(=C\C3=[N+](Cc4cc([N+](=O)[O-])cc([N+](=O)[O-])c4)c4ccccc4C3(C)C)/C2=O)C(C)(C)c2ccccc21 [Compound (1), 2-(1-methyl-3,3-dimethyl-2-indolinylidenemethyl)-4-(1-(3,5-dinitrobenzyl)-3,3-dimethyl-2-indolinylidenemethyl)cyclobutenediylium-1,3-diolate]
[2]
  detection of basal transcriptional activity: not sensitive enough to detect this low level activity

## CC[n+]1c(/C=C2/C(=O)C(/C=C3\N(CCOCCOC)c4ccccc4C3(C)C)=C2[O-])sc2cc([N+](=O)[O-])ccc21 [Compound (4), 2-(3-ethyl-6-nitro-2-benzothiazolinylidenemethyl)-4-(1-(2-(2-methoxyethoxy)ethyl)-3,3-dimethyl-2-indolinylidenemethyl)cyclobutenediylium-1,3-diolate]
[3]
  signal lost post-fixation: ~50%
